Measured values from publication PMC4503722, “Novel Phenotypic Outcomes Identified for a Public Collection of Approved Drugs from a Publicly Accessible Panel of Assays” (PLoS ONE, 2015).
Where two headings read alike, the source gives them in different places.

Experiments:
[1] = system: NCI-H716 cells; test: cells; assay type: cell-based, Human; conditions: for IC50/EC50, hNCI-H716 GLP1 Secretion (assay number 12): concentration response
[2] = system: STC-1 cell line; assay type: cell-based, mouse; conditions: for IC50/EC50, mSTC-1 GLP1 Secretion (assay number 13): concentration response
[3] = system: endothelial tube formation in co-cultures of ECFCs and ADSCs treated with VEGF; test: cells; assay type: cell-based, human
[4] = system: ECFC/ADSC co-culture cell nuclei number

Compound | hNCI-H716 GLP1 Secretion IC50/EC50 ([1]; assay number 12) [µM] | mSTC-1 GLP1 Secretion IC50/EC50 ([2]; assay number 13) [µM] | also measured
Cc1cc(N)c2cc(NC(=O)Nc3ccc4nc(C)cc(N)c4c3)ccc2n1 [NCGC00013130-04] | 34.2472 | > 40 | 
CC(=O)OC(C)C[N+](C)(C)C.[Cl-] (centres unmarked) [NCGC00015045-09] | > 40 | > 40 | 
CC(C)(Oc1ccc(C2CC2(Cl)Cl)cc1)C(=O)O (centres unmarked) [NCGC00015202-08] | > 40 | > 40 | 
C=Cc1c(C)c2cc3[nH]c(cc4nc(cc5nc(cc1[nH]2)C(C)=C5CCC(=O)O)C(CCC(=O)O)=C4C)c(C)c3C=C [NCGC00015844-10] | 19.5523 | > 40 | 
CN(C(=O)CN(CCO)CC(=O)N(C)C(C)(C)Cc1ccccc1)C(C)(C)Cc1ccccc1 [NCGC00016382-07] |  |  | IC50/EC50, hNCI-H716 GLP1 Secretion (assay number 12) [1]: 25.0515 µM; IC50/EC50, mSTC-1 GLP1 Secretion (assay number 13) [2]: > 40 µM
Cc1c(NC(C)C)c(=O)n(-c2ccccc2)n1C [NCGC00016735-06] | > 40 | > 40 | 
Cc1cc(C(C)(C)CC(C)(C)C)ccc1OCCOCC[N+](C)(C)Cc1ccccc1 [NCGC00016789-06] | 12.042 | > 40 | VEGF_ADSC\ECFC Angio CD31 TubeArea IC50/EC50 [3]: > 10 µM; VEGF_ADSC\ECFC Angio Hoechst NucArea IC50/EC50 [4]: 8.703 µM
CN[C@@H]1[C@H](O)[C@H](NC)[C@H]2O[C@@]3(O)C(=O)C[C@@H](C)O[C@H]3O[C@@H]2[C@H]1O.Cl.Cl [NCGC00017354-07] | > 40 | > 40 | 
C/C=C(/C(=C/C)c1ccc(O)cc1)c1ccc(O)cc1 [NCGC00018153-10] |  |  | IC50/EC50, hNCI-H716 GLP1 Secretion (assay number 12) [1]: > 40 µM; IC50/EC50, mSTC-1 GLP1 Secretion (assay number 13) [2]: > 40 µM
COc1cc2nc(N3CCN(C(=O)C4COc5ccccc5O4)CC3)nc(N)c2cc1OC.CS(=O)(=O)O (centres unmarked) [NCGC00018158-09] | > 40 | 10.6547 | VEGF_ADSC\ECFC Angio CD31 TubeArea IC50/EC50 [3]: > 10 µM; VEGF_ADSC\ECFC Angio Hoechst NucArea IC50/EC50 [4]: > 10 µM
Clc1ccc(CSC(Cn2ccnc2)c2ccc(Cl)cc2Cl)cc1.O=[N+]([O-])O (centres unmarked) [NCGC00018250-06] | 20.9915 | > 40 | VEGF_ADSC\ECFC Angio CD31 TubeArea IC50/EC50 [3]: 2.1282 µM; VEGF_ADSC\ECFC Angio Hoechst NucArea IC50/EC50 [4]: 8.757 µM
CCCCCCCCN[C@@H](C)[C@H](O)c1ccc(SC(C)C)cc1 [NCGC00018301-05] |  |  | IC50/EC50, hNCI-H716 GLP1 Secretion (assay number 12) [1]: 13.0298 µM; IC50/EC50, mSTC-1 GLP1 Secretion (assay number 13) [2]: > 40 µM
c1ccc2ccccc2c1 [NCGC00090793-05] | 20.7685 | > 40 | 
CC(=O)NO [NCGC00094576-05] | > 40 | > 40 | 
CCCCC(CC)CN1CN(CC(CC)CCCC)CC(C)(N)C1 (centres unmarked) [NCGC00094819-07] | 36.4422 | 26.5729 | 
CCCCCCCCCCCCCCCCCCOCC(O)CO (centres unmarked) [NCGC00095748-04] | > 40 | > 40 | 
CC1=C(C(=O)O)N2C(=O)[C@@H](NC(=O)[C@H](N)c3ccccc3)[C@H]2SC1 [NCGC00159522-05] | > 40 | > 40 | 
[O-][S+](c1cc(Cl)cc(Cl)c1O)c1cc(Cl)cc(Cl)c1O [NCGC00160554-02] | 19.7164 | > 40 | VEGF_ADSC\ECFC Angio CD31 TubeArea IC50/EC50 [3]: > 10 µM; VEGF_ADSC\ECFC Angio Hoechst NucArea IC50/EC50 [4]: > 10 µM
O=c1oc2ccccc2c(O)c1C(CC(O)c1ccc(-c2ccc(Br)cc2)cc1)c1ccccc1 (centres unmarked) [NCGC00163939-02] |  |  | hNCI-H716 GLP1 Secretion IC50/EC50 [1]: > 40 µM; mSTC-1 GLP1 Secretion IC50/EC50 [2]: 9.1609 µM
CC(C)(C)CC(C)(C)c1ccc(O)cc1 [NCGC00164127-07] | 25.8625 | 8.3699 | VEGF_ADSC\ECFC Angio CD31 TubeArea IC50/EC50 [3]: > 10 µM; VEGF_ADSC\ECFC Angio Hoechst NucArea IC50/EC50 [4]: 9.1112 µM
CCCCCCCC/C=C\CCCCCCCCN [NCGC00164329-03] | 14.7555 | > 40 | VEGF_ADSC\ECFC Angio CD31 TubeArea IC50/EC50 [3]: > 10 µM; VEGF_ADSC\ECFC Angio Hoechst NucArea IC50/EC50 [4]: 9.128 µM
Cc1c(C)n(CCN(C)C)c2ccc(C(=O)OCCN(C)C)cc12 [NCGC00164483-03] | > 40 | 1.1962 | 
CC(O)C(=O)O.CCCCCCCCCCCCCCNCCO [NCGC00164503-02] | 13.5546 | > 20 | VEGF_ADSC\ECFC Angio CD31 TubeArea IC50/EC50 [3]: > 10 µM; VEGF_ADSC\ECFC Angio Hoechst NucArea IC50/EC50 [4]: 9.1871 µM

Compound | hNCI-H716 GLP1 Secretion IC50/EC50 ([1]; assay number 12) [µM] | mSTC-1 GLP1 Secretion IC50/EC50 ([2]; assay number 13) [µM] | also measured
CC(C)(O)c1ccccc1CC[C@@H](SCC1(CC(=O)[O-])CC1)c1cccc(/C=C/c2ccc3ccc(Cl)cc3n2)c1.[Na+] [NCGC00164568-04] | 20.7101 | > 40 | 
CCOC(=O)[C@@H](N)CS.Cl [NCGC00166061-02] |  |  | IC50/EC50, hNCI-H716 GLP1 Secretion (assay number 12) [1]: > 40 µM; IC50/EC50, mSTC-1 GLP1 Secretion (assay number 13) [2]: 14.3442 µM
O=C1OC2(c3ccccc31)c1cc(I)c(O)c(I)c1Oc1c2cc(I)c(O)c1I [NCGC00166249-03] | > 40 | 2.9301 | 
CCCCCCCCCCCCOCCOCCOCCOCCOCCOCCOCCOCCOCCO [NCGC00166290-03] | > 40 | 30.3683 | 
CC1=C(C(=O)OC(C)C)C(c2cccc([N+](=O)[O-])c2)C(C(=O)OC2CN(C(c3ccccc3)c3ccccc3)C2)=C(N)N1 (centres unmarked) [NCGC00167436-02] | 12.7519 | 1.234 | VEGF_ADSC\ECFC Angio CD31 TubeArea IC50/EC50 [3]: 3.5833 µM; VEGF_ADSC\ECFC Angio Hoechst NucArea IC50/EC50 [4]: 7.394 µM
Clc1ccc(CO/N=C(\Cn2ccnc2)c2ccc(Cl)cc2Cl)c(Cl)c1.O=[N+]([O-])O [NCGC00177980-03] | > 40 | > 40 | VEGF_ADSC\ECFC Angio CD31 TubeArea IC50/EC50 [3]: > 10 µM; VEGF_ADSC\ECFC Angio Hoechst NucArea IC50/EC50 [4]: 8.846 µM
CCN(CC)CCOC(=O)C(Cc1cccc2ccccc12)CC1CCCO1 (centres unmarked) [NCGC00178213-05] | > 40 | > 40 | 
NC[C@@H]1O[C@H](O[C@H]2[C@@H](O)[C@H](O[C@@H]3[C@@H](O)[C@H](N)C[C@H](N)[C@H]3O[C@H]3O[C@H](CN)[C@@H](O)[C@H](O)[C@H]3N)O[C@@H]2CO)[C@H](N)[C@@H](O)[C@@H]1O [NCGC00179612-03] |  |  | IC50/EC50, hNCI-H716 GLP1 Secretion (assay number 12) [1]: > 40 µM; IC50/EC50, mSTC-1 GLP1 Secretion (assay number 13) [2]: > 40 µM
C#C[C@]1(O)CC[C@H]2[C@@H]3CCC4=CCCC[C@@H]4[C@H]3CC[C@@]21C [NCGC00179676-03] | 27.5211 | > 40 | 
C[C@@H](NCCCc1cccc(C(F)(F)F)c1)c1cccc2ccccc12.Cl [NCGC00181002-04] | 17.1869 | > 40 | VEGF_ADSC\ECFC Angio CD31 TubeArea IC50/EC50 [3]: > 10 µM; VEGF_ADSC\ECFC Angio Hoechst NucArea IC50/EC50 [4]: > 10 µM
O=C(O)c1cc(N=Nc2ccc([O-])c(C(=O)O)c2)ccc1[O-].[Na+].[Na+] [NCGC00181008-02] | > 40 | 9.5352 | 
CCCOC(C(=O)OC1CCN(C)CC1)(c1ccccc1)c1ccccc1.Cl [NCGC00181103-02] | > 40 | 23.8177 | 
O=C(Nc1cccc2c(=O)cc(-c3nn[nH]n3)oc12)c1ccc(OCCCCc2ccccc2)cc1 [NCGC00181765-01] | > 40 | > 40 | 
Cc1nnc2n1-c1sc(CCc3ccc(CC(C)C)cc3)cc1C(c1ccccc1Cl)=NC2C (centres unmarked) [NCGC00183008-01] | 24.6779 | > 40 | 
Cc1c(C)c2c(c(C)c1OC(=O)CCC(=O)OCCO)CC[C@@](C)(CCC[C@H](C)CCC[C@H](C)CCCC(C)C)O2 [NCGC00183103-01] | > 40 | > 40 | 
COc1cc(Nc2c(C#N)cnc3cc(OCCCN4CCN(C)CC4)c(OC)cc23)c(Cl)cc1Cl [NCGC00241107-02] | 25.1177 | > 40 | 
O=C(Nc1ccc(S(=O)(=O)N2CCOCC2)cc1)c1cc(Cl)ccc1NS(=O)(=O)c1ccc(Cl)s1 [NCGC00249417-02] | > 40 | > 40 | VEGF_ADSC\ECFC Angio CD31 TubeArea IC50/EC50 [3]: > 10 µM; VEGF_ADSC\ECFC Angio Hoechst NucArea IC50/EC50 [4]: > 10 µM
Nc1ccc(Cl)cc1C(=O)c1ccccc1F [NCGC00253725-01] | > 40 | > 40 | 
O=c1[nH]sc2cc(Cl)ccc12 [NCGC00262908-01] |  |  | IC50/EC50, VEGF_ADSC\ECFC Angio CD31 TubeArea (assay number 2) [3]: > 10 µM; IC50/EC50, hNCI-H716 GLP1 Secretion (assay number 12) [1]: > 40 µM; IC50/EC50, mSTC-1 GLP1 Secretion (assay number 13) [2]: > 40 µM; IC50/EC50, VEGF_ADSC\ECFC Angio Hoechst NucArea (assay number 3) [4]: 9.427 µM
COc1ccc(OC(=O)N(CC(=O)O)Cc2ccc(OCCc3nc(-c4ccccc4)oc3C)cc2)cc1 [NCGC00262954-01] | 36.168 | 1.5351 | 
[Cl][Pt+2][Cl].[NH2-].[NH2-] [NCGC00263537-01] |  |  | IC50/EC50, hNCI-H716 GLP1 Secretion (assay number 12) [1]: > 40 µM; IC50/EC50, mSTC-1 GLP1 Secretion (assay number 13) [2]: > 40 µM
CN(C)[C@@H]1C(=O)C(C(=O)NCN2CCCC2)=C(O)[C@@]2(O)C(=O)C3=C(O)c4c(O)cccc4[C@@](C)(O)[C@H]3C[C@@H]12 [NCGC00263906-02] | > 40 | > 40 | 
propagermanium [reference compound] |  |  | activity in NCI-H716 GLP-1 secretion assay (in words) [1]: potent actives; activity in STC-1 GLP-1 secretion assay (in words) [2]: potent actives
